Source: ChEMBL document CHEMBL5236579, “Hydrophobicity Determines the Bacterial Killing Rate of α-Helical Antimicrobial Peptides and Influences the Bacterial Resistance Development” (J Med Chem, 2022)
≈ marks a conversion by molar mass, not a printed value. Calls of active or inactive are those of the source. The calls are words filed in the database; no cut-off is given here. Where a SMILES comes first, the peptide text is derived from it.

Key:
Vibrio parahaemolyticus [1] = test: Induction of morphological changes in Vibrio parahaemolyticus ATCC17802 assessed as massive cell collapse incubated at 5 times MIC and measured after 180 mins by scanning electron microscopy based analysis; assay type: functional, organism-based
Staphylococcus aureus [2] = test: Antimicrobial activity against Staphylococcus aureus ATCC25923 by two fold broth microdilution method; assay type: functional; conditions: read-out: MIC
Vibrio parahaemolyticus [3] = test: Induction of morphological changes in Vibrio parahaemolyticus ATCC17802 assessed as cellular inclusion leakage incubated at 5 times MIC and measured after 180 mins by scanning electron microscopy based analysis; assay type: functional, organism-based
Peritoneal macrophage = test: Cytotoxicity against mouse peritoneal macrophage cells incubated for 48 hrs by MTT assay; assay type: toxicity, cell-based; conditions: dose < 250 µg/ml
HaCaT = test: Cytotoxicity against human HaCaT cells incubated for 48 hrs by MTT assay; assay type: toxicity, cell-based; conditions: dose < 250 µg/ml
Cell membrane [4] = test: Induction of inner membrane permeabilization in Vibrio parahaemolyticus ATCC17802 assessed as increase in PI fluorescence intensity at 5 times MIC by propidium iodide penetration assay; assay type: cell membranes; conditions: time <= 200.0 min
Bacillus cereus = test: Antimicrobial activity against clinical isolates Bacillus cereus by two fold broth microdilution method; assay type: functional
Escherichia coli [5] = test: Antimicrobial activity against Escherichia coli ATCC27622 by two fold broth microdilution method; assay type: functional
Vibrio parahaemolyticus [6] = test: Induction of morphological changes in Vibrio parahaemolyticus ATCC17802 assessed as surface fibrosis incubated at 5 times MIC and measured after 180 mins by scanning electron microscopy based analysis; assay type: functional, organism-based
Staphylococcus aureus [7] = test: Antimicrobial activity against clinical isolates Staphylococcus aureus by two fold broth microdilution method; assay type: functional
Vibrio parahaemolyticus [8] = test: Bactericidal activity against Vibrio parahaemolyticus ATCC17802 assessed as killing rate at 0.5 X MIC by measuring time limit of detection by bacterial killing kinetic assay; assay type: functional
Vibrio parahaemolyticus [9] = test: Antimicrobial activity against Vibrio parahaemolyticus ATCC17802 by two fold broth microdilution method; assay type: functional
Escherichia coli [10] = test: Bactericidal activity against Escherichia coli ATCC25722 assessed as killing rate at 0.5 X MIC measured upto 180 min by bacterial killing kinetic assay; assay type: functional, organism-based
Staphylococcus aureus [11] = test: Bactericidal activity against Staphylococcus aureus ATCC25923 assessed as killing rate at 0.5 X MIC measured upto 180 min by bacterial killing kinetic assay; assay type: functional, organism-based
Lipopolysaccharide (LPS) [12] = test: Binding affinity to Escherichia coli LPS assessed as LPS neutralizing activity measured after 5 mins by LPS neutralization assay
Cell membrane [13] = test: Binding affinity to Vibrio parahaemolyticus ATCC17802 cell membrane assessed as increase in fluorescence intensity measured after 120 mins by flow cytometry analysis (reference value: 1.88%); assay type: cell membranes
Vibrio parahaemolyticus [14] = test: Induction of bacterial resistance in Vibrio parahaemolyticus ATCC17802 assessed as fold increase in MIC treated over 30 serial passages measured after 24 hrs; assay type: functional
Cell membrane [15] = test: Induction of outer membrane permeabilization in Vibrio parahaemolyticus ATCC17802 assessed as increase fluorescence intensity measured upto 15 mins by NPN uptake assay; assay type: cell membranes
Cell membrane [16] = test: Induction of outer membrane permeabilization in Vibrio parahaemolyticus ATCC17802 assessed as increase fluorescence intensity at 0.5 to 2 times of MIC by NPN uptake assay; assay type: cell membranes; conditions: time <= 15.0 min, TDE = time-dependent effect
Lipopolysaccharide (LPS) [17] = test: Binding affinity to Escherichia coli LPS assessed as dissociation constant measured upto 600 sec by surface plasmon resonance imaging method
Escherichia coli [18] = test: In vivo antibacterial activity against Escherichia coli ATCC25722 infected in Balb/c mouse model assessed as reduction in bacterial CFU count on skin at 20 ug/ml incubated for 6 hrs post infection and measured after 2 hrs post compound treatment; assay type: functional, organism-based; conditions: dose 20.0 µg/ml, time 8.0 hrs
Cell membrane [19] = test: Induction of cytoplasmic membrane permeabilization in Vibrio parahaemolyticus […] assessed as calcein transmembrane diffusion into interior of gaint unilamellar vesicles by measuring time to equilibrium between inside and outside of vesicles at 2 ug/mL by confocal microscopy based calcein-AM leakage assay; assay type: cell membranes; conditions: dose 2.0 µg/ml
Cell membrane [20] = test: Induction of inner membrane permeabilization in Vibrio parahaemolyticus ATCC17802 at 5 times MIC measured upto 200 mins by propidium iodide penetration assay; assay type: cell membranes
[21] = Hemolytic activity in human erythrocytes measured after 30 mins; assay type: toxicity, cell-based; conditions: erythrocyte, 0.5 h
Lipopolysaccharide (LPS) [22] = test: Binding affinity to Escherichia coli LPS assessed as LPS neutralizing activity measured after 60 mins by LPS neutralization assay
Cell membrane [23] = test: Binding affinity to Vibrio parahaemolyticus ATCC17802 cell membrane assessed as increase in fluorescence intensity measured after 30 mins by flow cytometry analysis (reference value: 1.85%); assay type: cell membranes
Cell membrane [24] = test: Induction of outer membrane permeabilization in Escherichia coli ATCC25722 assessed as increase fluorescence intensity measured upto 15 mins by NPN uptake assay; assay type: cell membranes
[25] = Effect on morphological changes in POPC/POPG (3:1) bilayer membrane assessed as formation of bulge aggregates by measuring the height of bulges at 2 ug/ml incubated for 40 mins under neutral pH and low ionic strength by atomic force microscopic analysis; assay type: cell membranes; conditions: Cell membrane, dose 2.0 µg/ml
Escherichia coli [26] = test: In vivo antibacterial activity against Escherichia coli ATCC25722 infected in Balb/c mouse model assessed as reduction in bacterial CFU count on skin at 20 ug/ml applied 4 hrs after infection and measured after 120 mins; assay type: functional, organism-based; conditions: dose 20.0 µg/ml
Cell membrane [27] = test: Induction of outer membrane permeabilization in Escherichia coli ATCC25722 assessed as increase fluorescence intensity at 0.5 to 2 times of MIC by NPN uptake assay; assay type: cell membranes; conditions: time <= 15.0 min, TDE = time-dependent effect

Compound	Activity (Vibrio parahaemolyticus [1])	MIC (Staphylococcus aureus [2])	Activity (Vibrio parahaemolyticus [3])	Activity (Peritoneal macrophage)	Activity (HaCaT)	Activity (Cell membrane [4])	MIC (Bacillus cereus)	MIC (Escherichia coli [5])	Activity (Vibrio parahaemolyticus [6])	MIC (Staphylococcus aureus [7])	Time (Vibrio parahaemolyticus [8])	MIC (Vibrio parahaemolyticus [9])	Activity (Escherichia coli [10])	Activity (Staphylococcus aureus [11])	further results
CC[C@H](C)[C@H](NC(=O)[C@H](C)NC(=O)[C@H](CCCNC(=N)N)NC(=O)[C@H](C)NC(=O)[C@H](CC(C)C)NC(=O)[C@H](CCCCN)NC(=O)[C@H](CCCCN)NC(=O)[C@H](Cc1ccccc1)NC(=O)[C@H](CC(C)C)NC(=O)CNC(=O)[C@H](C)N)C(=O)N[C@@H](CCCCN)C(=O)N[C@@H](CCCCN)C(=O)NCC(=O)N[C@@H](Cc1ccccc1)C(=O)N[C@@H](CCCCN)C(=O)N[C@@H](CCCCN)C(=O)O (H-AGLFKKLARAIKKGFKK-OH)	Active	4.69 mg/L (≈ 2.46 µM)	Active	Dose-Dependent Effect	Dose-Dependent Effect	Active	9.38 mg/L (≈ 4.93 µM)	9.38 mg/L (≈ 4.93 µM)	Active	18.8 mg/L (≈ 9.85 µM)	>180 min	4.69 mg/L (≈ 2.46 µM)			
CC[C@H](C)[C@H](NC(=O)[C@H](CCCCN)NC(=O)[C@H](CCCCN)NC(=O)[C@H](C)NC(=O)[C@H](CCCCN)NC(=O)[C@H](CCCCN)NC(=O)[C@H](CC(C)C)NC(=O)[C@@H](NC(=O)[C@H](CCCCN)NC(=O)[C@H](CCCCN)NC(=O)[C@H](Cc1c[nH]c2ccccc12)NC(=O)[C@H](Cc1ccccc1)NC(=O)[C@H](CCCCN)NC(=O)[C@H](CCCNC(=N)N)NC(=O)[C@H](CCCNC(=N)N)NC(=O)[C@@H](N)CCCCN)C(C)C)C(=O)N[C@@H](C)C(=O)O (H-KRRKFWKKVLKKAKKIA-OH)		2.34 mg/L (≈ 1.08 µM)					4.69 mg/L (≈ 2.17 µM)	9.38 mg/L (≈ 4.35 µM)		18.8 mg/L (≈ 8.69 µM)	>180 min	4.69 mg/L (≈ 2.17 µM)	Active	Active	
CC[C@H](C)[C@H](NC(=O)[C@H](CCCCN)NC(=O)[C@H](CCCCN)NC(=O)[C@H](CC(C)C)NC(=O)[C@H](CCCCN)NC(=O)[C@H](CCCCN)NC(=O)[C@H](CC(C)C)NC(=O)[C@@H](NC(=O)[C@H](CCCCN)NC(=O)[C@H](CCCCN)NC(=O)[C@H](Cc1c[nH]c2ccccc12)NC(=O)[C@H](Cc1ccccc1)NC(=O)[C@H](CCCCN)NC(=O)[C@H](CCCNC(=N)N)NC(=O)[C@H](CCCNC(=N)N)NC(=O)[C@@H](N)CCCCN)C(C)C)C(=O)N[C@@H](CC(C)C)C(=O)O (H-KRRKFWKKVLKKLKKIL-OH)		2.34 mg/L (≈ 1.04 µM)					4.69 mg/L (≈ 2.09 µM)	4.69 mg/L (≈ 2.09 µM)		9.38 mg/L (≈ 4.19 µM)	15 min	2.34 mg/L (≈ 1.04 µM)	Active	Active	
CC[C@H](C)[C@H](NC(=O)[C@H](CCCCN)NC(=O)[C@H](CCCNC(=N)N)NC(=O)[C@H](C)NC(=O)[C@H](CC(C)C)NC(=O)[C@H](CCCCN)NC(=O)[C@H](CCCCN)NC(=O)[C@H](Cc1ccccc1)NC(=O)[C@H](CC(C)C)NC(=O)CNC(=O)[C@@H](N)CCCNC(=N)N)C(=O)N[C@@H](CCCCN)C(=O)N[C@@H](CCCCN)C(=O)NCC(=O)N[C@@H](Cc1ccccc1)C(=O)N[C@@H](CCCCN)C(=O)N[C@@H](CCCCN)C(=O)O (H-RGLFKKLARKIKKGFKK-OH)	Active	4.69 mg/L (≈ 2.29 µM)	Active	Dose-Dependent Effect	Dose-Dependent Effect	Active	9.38 mg/L (≈ 4.58 µM)	9.38 mg/L (≈ 4.58 µM)	Active	37.5 mg/L (≈ 18.3 µM)	>180 min	4.69 mg/L (≈ 2.29 µM)			
CC[C@H](C)[C@H](NC(=O)[C@H](CCCCN)NC(=O)[C@H](CCCNC(=N)N)NC(=O)[C@H](CC(C)C)NC(=O)[C@H](CC(C)C)NC(=O)[C@H](CCCCN)NC(=O)[C@H](CCCCN)NC(=O)[C@H](Cc1ccccc1)NC(=O)[C@H](CC(C)C)NC(=O)CNC(=O)[C@@H](N)CCCNC(=N)N)C(=O)N[C@@H](CCCCN)C(=O)N[C@@H](CCCCN)C(=O)NCC(=O)N[C@@H](Cc1ccccc1)C(=O)N[C@@H](CCCCN)C(=O)N[C@@H](CCCCN)C(=O)O (H-RGLFKKLLRKIKKGFKK-OH)	Active	2.34 mg/L (≈ 1.12 µM)	Active	Dose-Dependent Effect	Dose-Dependent Effect	Active	9.38 mg/L (≈ 4.49 µM)	4.69 mg/L (≈ 2.25 µM)	Active	18.8 mg/L (≈ 8.98 µM)	120 min	4.69 mg/L (≈ 2.25 µM)			Activity (Lipopolysaccharide (LPS) [12]): inactive; Activity (Cell membrane [13]): 99.5%; fold change (FC) (Vibrio parahaemolyticus [14]): 16; Activity (Cell membrane [15]): Dose-Dependent Effect; Activity (Cell membrane [16]): Tde; Kd (Lipopolysaccharide (LPS) [17]): 23.5 µM; Activity (Escherichia coli [18]): Active; TIME (Cell membrane [19]): 1 h; Activity (Cell membrane [20]): Active; Activity [21]: Toxic; Activity (Lipopolysaccharide (LPS) [22]): Active; Activity (Cell membrane [23]): 20.6%; Activity (Cell membrane [24]): Dose-Dependent Effect; Activity [25]: 1 nm; Activity (Escherichia coli [26]): inactive; Activity (Cell membrane [27]): Tde
CC[C@H](C)[C@H](NC(=O)[C@H](CCCCN)NC(=O)[C@H](CC(C)C)NC(=O)[C@H](C)NC(=O)CNC(=O)[C@H](CC(N)=O)NC(=O)[C@H](CC(C)C)NC(=O)[C@@H](NC(=O)[C@H](CCCCN)NC(=O)[C@H](CCCCN)NC(=O)[C@H](Cc1c[nH]c2ccccc12)NC(=O)[C@H](Cc1ccccc1)NC(=O)[C@H](CCCCN)NC(=O)[C@H](CCCNC(=N)N)NC(=O)[C@H](CCCNC(=N)N)NC(=O)[C@@H](N)[C@@H](C)O)C(C)C)C(=O)N[C@@H](C)C(=O)O (H-TRRKFWKKVLNGALKIA-OH)		4.69 mg/L (≈ 2.31 µM)					9.38 mg/L (≈ 4.62 µM)	9.38 mg/L (≈ 4.62 µM)		18.8 mg/L (≈ 9.24 µM)	30 min	4.69 mg/L (≈ 2.31 µM)	Active	Active	
CC1(C)S[C@@H]2[C@H](NC(=O)[C@H](N)c3ccccc3)C(=O)N2[C@H]1C(=O)O [AMPICILLIN]		0.59 mg/L (≈ 1.69 µM)					4.69 mg/L (≈ 13.4 µM)	2.34 mg/L (≈ 6.7 µM)		> 200 mg/L		0.59 mg/L (≈ 1.69 µM)			fold change (FC) (Vibrio parahaemolyticus [14]): 32
